Test results taken from publication PMC9455983 (International Journal of Molecular Sciences, 2022).
Like-named read-outs stand apart in the source and are kept apart here.

Tests used:
[1] = target: T1, kappa-opioid receptor (KOR) (Cavia porcellus, UniProt P41144); assay: KOR radioligand competition binding assay ([3H]U69,593); parameters: species or system guinea pig; details: Kappa screening results
T1 construct: Guinea pig cortices and cerebella were homogenized using 50 mM Tris, pH 7.4; from tissue; host or cells: guinea pig cortex and cerebellum membranes
Procedure, shortened: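 Guinea pig cortex and cerebellum homogenates in 50 mM Tris pH 7.4 with 10 mM MgCl2, 2 nM [3H]U69,593, 2 h at 25 °C. Unlabeled U50,488 gave the standard curve and nonspecific binding. Filtration on BSA-soaked GF/B filters, scintillation counting; two replicates, repeated twice, mean ± SD.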

mu-opioid receptor (MOR) = target: T2, mu-opioid receptor (MOR) (Rattus norvegicus, UniProt P33535); assay: MOR radioligand competition binding assay ([3H]-DAMGO); details: Mu screening results
T2 construct: Rat cortices were homogenized using 50 mM Tris, pH 7.4, and centrifuged at 16,500 rpm for 10 min; from tissue; host or cells: rat cortex membranes
Procedure, shortened: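 Competition for 2 nM [3H]-DAMGO binding was measured in rat cortex membrane suspension (50 mM Tris, pH 7.4, plus 2 mg/mL bovine serum). After filtration through GF/B filters pre-soaked in BSA, filter radioactivity was counted. Data are two duplicate experiments reported as mean ± SD.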

C57BL/6J mice [2] = assay: 55 °C warm-water tail-withdrawal assay (antinociception); assay type: in vivo, mouse; details: for ED50 (and 95% Confidence Interval (C.I.)) Values, i.c.v. (nmol): antinociception at peak response, mice, * ED50 estimated where maximum antinociception not achieved; for duration of significant antinociception: maximum doses tested
Experimental: For intracerebroventricular (i.c.v.) administration, the 1968-series compounds were dissolved in dimethyl sulfoxide (DMSO), followed by the addition of sterile saline (0.9%) so that the final vehicle was 50% DMSO and 50% saline, and the i.c.v. injections were performed as described previously. For per os (p.o.) administration, 1968-4 and 1968-22 were administered in 10% Ethanol/10%Tween-80/80% 0.9% saline. All solutions for animal administration were prepared fresh daily.
Antinociception was calculated according to the following formula: % antinociception = 100 × (test latency − control latency)/(15 − control latency). Tail-withdrawal data points are the means of 8–16 mice, unless otherwise indicated, with SEM shown by error bars.
All dose–response lines were analyzed by regression, and ED50 (effective dose producing 50% antinociception) values and 95% confidence intervals (C.I.) were determined using individual data points from graded dose–response curves with Prism 8.0 software (GraphPad, La Jolla, CA, USA). Percent antinociception was used to determine within group effects and to allow comparison to baseline latency in tail-withdrawal experiments. The statistical significance of differences between ED50 values was determined by evaluation of the ED50 value shift via nonlinear regression modeling with Prism software. Significant differences in behavioral data were analyzed by ANOVA (one-way or two-way with repeated measures (RM), as appropriate). Significant results were further analyzed with Sidak’s, Tukey’s, or Dunnett’s multiple comparison post hoc tests, as appropriate. Data for conditioned place preference experiments were analyzed by two-way RM ANOVA, with analyses examining the main effect of the conditioned place preference phase (e.g., pre- or post-conditioning) and the interaction of drug pretreatment. Significant effects were further analyzed using Sidak’s HSD post hoc testing. All data are presented as mean ± SEM, with significance set at p < 0.05.

[3] = target: T3, delta-opioid receptor (DOR) (Rattus norvegicus, UniProt P33533); assay: DOR radioligand competition binding assay ([3H]-DPDPE); details: Delta screening results
T3 construct: Rat cortices were homogenized using 50 mM Tris, pH 7.4, 10 mM MgCl2-6H2O, 200 µM PMSF; from tissue; host or cells: rat cortex membranes
Procedure, shortened: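 Radioligand was 2 nM [3H]-DPDPE, incubated 2.5 h at 25 °C with homogenized rat cortex (50 mM Tris pH 7.4, 10 mM MgCl2, 200 µM PMSF). Bound ligand separated on GF/B filters and counted; nonspecific binding from unlabeled DPDPE. Values are mean ± SD, two experiments, two replicates each.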

C57BL/6J mice [4] = assay: Opioid receptor involvement in antinociception (antagonist pretreatment, tail-withdrawal assay); assay type: in vivo, mouse
Experimental: Pretreatment of mice with the opioid antagonist naloxone (10 mg/kg, s.c., −15 min) was used to assess receptor contribution to the observed antinociception induced by maximal tested doses of each 1968-series compound tested.
The opioid receptor involvement in the agonist activity of the heterocyclic peptidomimetics was determined by pretreating mice with a single dose of β-funaltrexamine (β-FNA, 10 mg/kg, i.p.) or nor-BNI (10 mg/kg, i.p.) 24 h in advance of administration of a dose of 1968-series compound.

[5] = experiment 1, unit inferred, read-out: Ki (Exp 1)
[6] = experiment 2, unit inferred, read-out: Ki (Exp 2)
[7] = mean of Exp 1 and Exp 2, unit inferred, read-out: MEAN (Ki)
[8] = mean of two experiments, read-out: Ki
[9] = first Ki column, unit not printed (apparently M), read-out: Ki (first column)
[10] = mean of both Ki, unit inferred, read-out: MEAN (Ki)
[11] = second Ki column, unit not printed (apparently M), read-out: Ki (second column)

| SMILES | Ki [1, 5] [nM] | Ki [1, 6] [nM] | Ki [1, 7] [nM] | Ki [1, 8] [nM] | Ki (mu-opioid receptor (MOR); [5]) [nM] | Ki (mu-opioid receptor (MOR); [6]) [nM] | Ki (mu-opioid receptor (MOR); [7]) [nM] | Ki (mu-opioid receptor (MOR); [8]) [nM] | Ki [3, 9] [nM] | Ki [3, 10] [nM] | Ki [3, 8] [nM] | Ki [3, 11] [nM] | further results |
| --- | --- | --- | --- | --- | --- | --- | --- | --- | --- | --- | --- | --- | --- |
| Cc1cc(O)cc(C)c1C[C@H]1CN([C@@H](Cc2ccc(O)cc2)CN2C(=N)NC[C@@H]2Cc2ccccc2)C(=N)N1 [1968-4] | 311 | 178 | 245 | 245 | 16.9 | 9.51 | 13.2 | 13 | 729 | 874 | 874 | 1020 | antinociception at the highest dose tested (C57BL/6J mice [2]; 30 nmol, i.c.v.): approximately 60%; antinociception after oral administration (in words) (C57BL/6J mice [2]; 10 mg/kg, p.o.): significant antinociception; duration of significant antinociception after oral administration (C57BL/6J mice [2]; 10 mg/kg, p.o.): brief; time of peak antinociception after i.c.v. administration (C57BL/6J mice [2]; i.c.v.): 30 min; ED50 (and 95% Confidence Interval (C.I.)) Values, i.c.v. (nmol) (C57BL/6J mice [2]; i.c.v.): 20.8 (5.52–127.1) nmol; duration of significant antinociception (C57BL/6J mice [2]; i.c.v.): 60 min |
| Cc1cc(O)cc(C)c1C[C@@H](CN1C(=N)NC[C@@H]1C)N1C[C@H](Cc2ccc(O)cc2)NC1=N [1968-16] | 246 | 293 | 270 | 270 | 7.52 | 9.24 | 8.38 | 8 | 616 | 697 | 697 | 777 | effect of naloxone pretreatment on antinociception (C57BL/6J mice [4]; naloxone 10 mg/kg, s.c., −15 min, maximal tested i.c.v. dose of compound): most susceptible to antagonism by naloxone; effect of naltrindole (DOR antagonist) pretreatment on antinociception (C57BL/6J mice [4]; naltrindole 20 mg/kg, i.p., −20 min, 1968-16 30 nmol or 1968-22 0.3 nmol, i.c.v.): significantly antagonized; effect of nor-BNI (KOR antagonist) pretreatment on antinociception (C57BL/6J mice [4]; nor-BNI 10 mg/kg, i.p., −24 h, 1968-16 30 nmol or 1968-22 0.3 nmol, i.c.v.): significantly antagonized; effect of β-FNA (MOR antagonist) pretreatment on antinociception (C57BL/6J mice [4]; β-FNA 10 mg/kg, i.p., −24 h, 1968-16 30 nmol or 1968-22 0.3 nmol, i.c.v.): significantly antagonized; ED50 (and 95% Confidence Interval (C.I.)) Values, i.c.v. (nmol) (C57BL/6J mice [2]; i.c.v.): 2.00 (0.5–7.45) nmol; duration of significant antinociception (C57BL/6J mice [2]; i.c.v.): 70 min |
| CC(C)C[C@H]1CN([C@@H](Cc2ccc(O)cc2)CN2C(=N)NC[C@@H]2C)C(=N)N1 [1968-39] | 4090 | 7720 | 5900 | 5900 | 1240 | 1770 | 1500 | 1500 | 4150 | 3830 | 3830 | 3510 |  |
| CC(C)C[C@H]1CN([C@@H](CC(C)C)CN2C(=N)NC[C@@H]2C)C(=N)N1 [1968-43] | 36000 | 53000 | 44500 | 44500 | 7810 | 10700 | 9260 | 9260 | 9250 | 7970 | 7970 | 6690 |  |
| CC(C)C[C@@H](CN1C(=N)NC[C@@H]1Cc1ccccc1)N1C[C@H](Cc2ccc(O)cc2)NC1=N [1968-10] | 5470 | 4840 | 5160 | 5160 | 199 | 281 | 240 | 240 | 2230 | 2210 | 2210 | 2190 |  |
| Cc1cc(O)cc(C)c1C[C@H]1CN([C@@H](CC(C)C)CN2C(=N)NC[C@@H]2Cc2c(C)cc(O)cc2C)C(=N)N1 [1968-60] | 308 | 422 | 365 | 365 | 66.4 | 71.2 | 68.8 | 69 | 978 | 814 | 814 | 651 |  |
| CC(C)C[C@@H](CN1C(=N)NC[C@@H]1Cc1ccccc1)N1C[C@H](Cc2ccccc2)NC1=N [1968-9] | 11400 | 10900 | 11100 | 11100 | 848 | 955 | 901 | 901 | 9830 | 7820 | 7820 | 5810 |  |
| CC(C)C[C@H]1CN([C@@H](Cc2ccc(O)cc2)CN2C(=N)NC[C@@H]2Cc2ccccc2)C(=N)N1 [1968-66] | 2660 | 3320 | 2990 | 2990 | 2040 | 1990 | 2020 | 2020 | 18200 |  |  |  |  |
| CC(C)C[C@@H](CN1C(=N)NC[C@@H]1Cc1ccc(O)cc1)N1C[C@H](Cc2ccccc2)NC1=N [1968-25] | 6550 | 3320 | 4930 | 4930 | 707 | 725 | 716 | 716 | 25400 | 30500 | 30500 | 35700 |  |
